Earlier results, collected in patent publication US20130084245A1, “PET MONITORING OF A-BETA-DIRECTED IMMUNOTHERAPY” (Wyeth LLC, priority 2010, published 2013).

How the values were obtained:
Aβ deposits [1] = biological target: T1, Aβ deposits (Homo sapiens, UniProt P05067); details: preliminary study
T1 construct: aggregated fibrillar deposits of the Aβ peptide

[2] = biological target: T2, aggregated fibrillar deposits of the Aβ peptide (Homo sapiens, UniProt P05067)
T2 construct: aggregated fibrillar deposits of the Aβ peptide
T2 sequence (P05067 672-713 limits assumed): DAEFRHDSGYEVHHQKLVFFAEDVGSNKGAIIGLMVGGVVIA

Aβ deposits [3] = biological target: T1, Aβ deposits; details: areas of brain association cortex targeted by Aβ deposits

T1 sequence (P05067 672-713 limits assumed): as above

| Performance as PET ligand in AD and controls (Aβ deposits [1]) | Affinity for aggregated fibrillar deposits of the Aβ peptide [2] | Selectivity of binding to postmortem human brain ([2]; low nanomolar concentrations typically used in PET studies) | Retention in AD patients compared with controls (Aβ deposits [3]) | SMILES |
| --- | --- | --- | --- | --- |
| performed comparably to ^11C-PIB | – | – | – | CNc1ccc(/C=C/c2ccc(OCCOCCOCC[18F])cc2)cc1 [^18F-BAY94-9172] |
| – | low nanomolar affinity | selective for fibrillar Aβ deposits | approximately two-fold | CNc1ccc(-c2nc3ccc(O)cc3s2)cc1 [PiB, 2-(4′-methylaminophenyl)-6-hydroxybenzothiazole] |
